Molecular target: T1, endogenous PIP4K2C C-terminally tagged with HiBiT peptide in MOLT-4 cells (Homo sapiens, UniProt Q8TBX8)
T1 construct: to C-terminally tag endogenous PIP4K2C with HiBiT peptide; host or cells: MOLT-4 (CRISPR-Cas9 knock-in clone)
T1 sequence (Q8TBX8 1-421): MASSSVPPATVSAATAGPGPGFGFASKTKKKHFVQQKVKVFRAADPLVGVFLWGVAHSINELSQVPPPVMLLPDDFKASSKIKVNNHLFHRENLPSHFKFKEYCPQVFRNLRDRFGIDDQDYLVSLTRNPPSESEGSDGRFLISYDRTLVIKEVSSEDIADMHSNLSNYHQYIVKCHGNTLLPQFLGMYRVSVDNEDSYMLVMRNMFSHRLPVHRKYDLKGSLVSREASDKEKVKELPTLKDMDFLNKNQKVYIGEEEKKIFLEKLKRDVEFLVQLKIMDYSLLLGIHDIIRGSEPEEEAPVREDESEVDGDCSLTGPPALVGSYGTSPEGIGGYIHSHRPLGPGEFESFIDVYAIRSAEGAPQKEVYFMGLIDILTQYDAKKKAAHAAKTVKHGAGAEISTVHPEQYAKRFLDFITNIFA
Assay: HiBiT PIP4K2C degradation assay in MOLT-4 cells
Type: cell-based
Conditions: 24 hours, 10-point dose response, top concentration 10 micromolar, read-out: HiBIT-degradation MOLT4 PIP4k2C 24 hours DC50
Procedure: Following clonal selection, genotype was confirmed by Sanger sequencing. […] Nano-Glo® HiBiT Lytic Assay System was purchased from Promega (Madison, WI, Catalog number N3030). Cell culture flasks and 384-well microplates were purchased from Corning (Glendale, AZ).
To study PIP4K2C degradation, 384-well plates were plated with a 10-point dose response curve, 3-fold dilution, in duplicate with a top starting concentration of 10 micromolar. Subsequently 22,500 cells were added to each well and incubated at 37C in 5% CO2 for 24 hours. At the end of the incubation time, cells were treated with the Nano-Glo® HiBiT Lytic Detection System following the manufacturer's instructions. Luminescence was measured with a PHERAstar FSX plate reader (BMG Labtech, Cary, NC). The Levenberg-Marquardt algorithm was used to fit a Hill equation to dose-response data to calculate DC50 values (see Table 6).

DC50 | SMILES
< 500 nM | CN1CCC(n2cc(-c3nc(Nc4cncc(N5CCC6(CCN(C(=O)CC7CCN(c8ccc(NC9CCC(=O)NC9=O)cc8)CC7)CC6)C5=O)c4)ncc3Cl)cn2)CC1 (stereo not drawn) [Compound 193, 3-((4-(4-(2-(2-(5-((5-chloro-4-(1-(1-methylpiperidin-4-yl)-1H-pyrazol-4-yl)pyrimidin-2-yl)amino)pyridin-3-yl)-1-oxo-2,8-diazaspiro[4.5]decan-8-yl)-2-oxoethyl)piperidin-1-yl)phenyl)amino)piperidine-2,6-dione]
< 500 nM | O=C1CCC(N2Cc3cc(OCCCCCC(=O)N4CCC5(CC4)CCN(c4cncc(Nc6ncc(Cl)c(-c7cccc(-c8ccccc8)c7)n6)c4)C5=O)ccc3C2=O)C(=O)N1 (stereo not drawn) [Compound 88, 3-(5-((6-(2-(5-((4-([1,1′-biphenyl]-3-yl)-5-chloropyrimidin-2-yl)amino)pyridin-3-yl)-1-oxo-2,8-diazaspiro[4.5]decan-8-yl)-6-oxohexyl)oxy)-1-oxoisoindolin-2-yl)piperidine-2,6-dione]
< 500 nM | O=C1CCC(Nc2ccc(C3CCN(CC(=O)N4CCC5(CC4)CCN(c4cncc(Nc6ncc(Cl)c(-c7cccc(C8CC8)c7)n6)c4)C5=O)CC3)cc2)C(=O)N1 (stereo not drawn) [Compound 206, 3-[4-[1-[2-[2-[5-[[5-chloro-4-(3-cyclopropylphenyl)pyrimidin-2-yl]amino]-3-pyridyl]-1-oxo-2,8-diazaspiro[4.5]decan-8-yl]-2-oxo-ethyl]-4-piperidyl]anilino]piperidine-2,6-dione]
< 500 nM | O=C1CCC(N2Cc3cc(NCCCCCC(=O)N4CCC5(CC4)CCN(c4cncc(Nc6ncc(Cl)c(-c7cccc(-c8ccccc8)c7)n6)c4)C5=O)ccc3C2=O)C(=O)N1 (stereo not drawn) [Compound 82, 3-(5-((6-(2-(5-((4-([1,1′-biphenyl]-3-yl)-5-chloropyrimidin-2-yl)amino)pyridin-3-yl)-1-oxo-2,8-diazaspiro[4.5]decan-8-yl)-6-oxohexyl)amino)-1-oxoisoindolin-2-yl)piperidine-2,6-dione]
< 500 nM | O=C1CCC(N2C(=O)c3cccc(OCCCN4CCN(CCCCCCC(=O)Nc5cncc(Nc6ncc(Cl)c(-c7cccc(-c8ccccc8)c7)n6)c5)CC4)c3C2=O)C(=O)N1 (stereo not drawn) [Compound 58, N-(5-((4-([1,1′-biphenyl]-3-yl)-5-chloropyrimidin-2-yl)amino)pyridin-3-yl)-7-(4-(3-((2-(2,6-dioxopiperidin-3-yl)-1,3-dioxoisoindolin-4-yl)oxy)propyl)piperazin-1-yl)heptanamide]
< 500 nM | Cn1c(=O)n(C2CCC(=O)NC2=O)c2ccc(C3CCN(C(=O)CN4CCC5(CC4)CCN(c4cncc(Nc6ncc(Cl)c(-c7cccc(C8CC8)c7)n6)c4)C5=O)CC3)cc21 (stereo not drawn) [Compound 208, 3-[5-[1-[2-[2-[5-[[5-chloro-4-(3-cyclopropylphenyl)pyrimidin-2-yl]amino]-3-pyridyl]-1-oxo-2,8-diazaspiro[4.5]decan-8-yl]acetyl]-4-piperidyl]-3-methyl-2-oxo-benzimidazol-1-yl]piperidine-2,6-dione]
< 500 nM | Cn1c(=O)n(C2CCC(=O)NC2=O)c2ccc(C3CCN(C(=O)CN4CCC(C(=O)Nc5cncc(Nc6ncc(Cl)c(-c7cccc(C8CC8)c7)n6)c5)CC4)CC3)cc21 (stereo not drawn) [Compound 204, N-(5-((5-chloro-4-(3-cyclopropylphenyl)pyrimidin-2-yl)amino)pyridin-3-yl)-1-(2-(4-(1-(2,6-dioxopiperidin-3-yl)-3-methyl-2-oxo-2,3-dihydro-1H-benzo[d]imidazol-5-yl)piperidin-1-yl)-2-oxoethyl)piperidine-4-carboxamide]
< 500 nM | O=C(COc1cccc2c1C(=O)N(C1CCC(=O)NC1=O)C2=O)NCCCCCCCC(=O)N1CCC2(CC1)CCN(c1cncc(Nc3ncc(Cl)c(-c4cccc(-c5ccccc5)c4)n3)c1)C2=O (stereo not drawn) [Compound 77, N-(8-(2-(5-((4-([1,1′-biphenyl]-3-yl)-5-chloropyrimidin-2-yl)amino)pyridin-3-yl)-1-oxo-2,8-diazaspiro[4.5]decan-8-yl)-8-oxooctyl)-2-((2-(2,6-dioxopiperidin-3-yl)-1,3-dioxoisoindolin-4-yl)oxy)acetamide]
< 500 nM | O=C1CCC(N2C(=O)c3cccc(OCCCN4CCN(CCCCC(=O)Nc5cncc(Nc6ncc(Cl)c(-c7cccc(-c8ccccc8)c7)n6)c5)CC4)c3C2=O)C(=O)N1 (stereo not drawn) [Compound 65, N-(5-((4-([1,1′-biphenyl]-3-yl)-5-chloropyrimidin-2-yl)amino)pyridin-3-yl)-5-(4-(3-((2-(2,6-dioxopiperidin-3-yl)-1,3-dioxoisoindolin-4-yl)oxy)propyl)piperazin-1-yl)pentanamide]
< 500 nM | O=C1CCC(Nc2ccc(C3CCN(CC(=O)N4CCC5(CC4)CCN(c4cncc(Nc6ncc(Cl)c(N7CCC[C@H](C(F)(F)F)C7)n6)c4)C5=O)CC3)cc2)C(=O)N1 (stereo partly drawn) [Compound 172, 3-((4-(1-(2-(2-(5-((5-chloro-4-((S)-3-(trifluoromethyl)piperidin-1-yl)pyrimidin-2-yl)amino)pyridin-3-yl)-1-oxo-2,8-diazaspiro[4.5]decan-8-yl)-2-oxoethyl)piperidin-4-yl)phenyl)amino)piperidine-2,6-dione]
< 500 nM | O=C1CCC(Nc2ccc(N3CCC(CN4CCC5(CC4)CCN(c4cncc(Nc6ncc(Cl)c(N7CCCC(C8CC8)C7)n6)c4)C5=O)CC3)cc2)C(=O)N1 (stereo not drawn) [Compound 212, 3-((4-(4-((2-(5-((5-chloro-4-(3-cyclopropylpiperidin-1-yl)pyrimidin-2-yl)amino)pyridin-3-yl)-1-oxo-2,8-diazaspiro[4.5]decan-8-yl)methyl)piperidin-1-yl)phenyl)amino)piperidine-2,6-dione]
500 to 1000 nM | O=C1CCC(N2C(=O)c3cccc(OCCCCCCCCC(=O)N4CCC5(CC4)CCN(c4cncc(Nc6ncc(Cl)c(-c7cccc(-c8ccccc8)c7)n6)c4)C5=O)c3C2=O)C(=O)N1 (stereo not drawn) [Compound 78, 4-((9-(2-(5-((4-([1,1′-biphenyl]-3-yl)-5-chloropyrimidin-2-yl)amino)pyridin-3-yl)-1-oxo-2,8-diazaspiro[4.5]decan-8-yl)-9-oxononyl)oxy)-2-(2,6-dioxopiperidin-3-yl)isoindoline-1,3-dione]
< 500 nM | O=C1CCC(Nc2ccc(N3CCC(CC(=O)N4CCC5(CC4)CCN(c4cncc(Nc6ncc(Cl)c(N7CCC[C@H](O)C7)n6)c4)C5=O)CC3)cc2)C(=O)N1 (stereo partly drawn) [Compound 175, 3-((4-(4-(2-(2-(5-((5-chloro-4-((S)-3-hydroxypiperidin-1-yl)pyrimidin-2-yl)amino)pyridin-3-yl)-1-oxo-2,8-diazaspiro[4.5]decan-8-yl)-2-oxoethyl)piperidin-1-yl)phenyl)amino)piperidine-2,6-dione]
< 500 nM | O=C(COc1ccc2c(c1)CN(C1CCC(=O)NC1=O)C2=O)NCCCCCCCCCC(=O)Nc1cncc(Nc2ncc(Cl)c(-c3cccc(-c4ccccc4)c3)n2)c1 (stereo not drawn) [Compound 60, N-(5-((4-([1,1′-biphenyl]-3-yl)-5-chloropyrimidin-2-yl)amino)pyridin-3-yl)-10-(2-((2-(2,6-dioxopiperidin-3-yl)-1-oxoisoindolin-5-yl)oxy)acetamido)decanamide]
< 500 nM | O=C1CCC(N2C(=O)c3ccc(OCCCCCCCC(=O)N4CCC5(CC4)CCN(c4cncc(Nc6ncc(Cl)c(-c7cccc(-c8ccccc8)c7)n6)c4)C5=O)cc3C2=O)C(=O)N1 (stereo not drawn) [Compound 73, 5-((8-(2-(5-((4-([1,1′-biphenyl]-3-yl)-5-chloropyrimidin-2-yl)amino)pyridin-3-yl)-1-oxo-2,8-diazaspiro[4.5]decan-8-yl)-8-oxooctyl)oxy)-2-(2,6-dioxopiperidin-3-yl)isoindoline-1,3-dione]

Source: patent publication US20260184691A1, “INHIBITORS AND DEGRADERS OF PIP4K PROTEIN” (Larkspur Biosciences, Inc., priority 2022, published 2026)
